Earlier results as cited in patent US20040126339A1, “Sunscreen composition and methods for manufacturing and using a sunscreen composition” (priority 2002, published 2004).

Conditions: in vivo

## Poly(vinylpyrrolidone/1-eicosene) [PVPE]
  dermal toxicity: no demonstrable dermal toxicity

## Poly(vinylpyrrolidone/1-hexadecene) [PVPH]
  dermal toxicity: no demonstrable dermal toxicity
